Assay results taken from paper PMC6422312 (Molecular pharmacology, 2010).
“Also recorded” adds a separate entry of the source.

Assays:
P-gp Q132A mutant [1] = target: T1, P-gp Q132A mutant (Homo sapiens, UniProt P08183, Q132A); details: alanine mutants (Q132A, Q773A) vs wild type, rhodamine123 efflux inhibition
P-gp Q773R mutant [2] = target: T2, P-gp Q773R mutant (Homo sapiens, UniProt P08183, Q773R); test: cell-based; details: IC50 for rhodamine123 efflux inhibition, HEK-293/EBNA cells
P-gp Q132A mutant [3] = target: T1, P-gp Q132A mutant; test: cell-based
P-gp Q132A/Q773A mutant = P-gp Q132A/Q773A mutant (Homo sapiens, UniProt P08183, Q132A/Q773A); test: cell-based
P-gp Q132R mutant [4] = target: T3, P-gp Q132R mutant (Homo sapiens, UniProt P08183, Q132R); details: rhodamine123 efflux inhibition
P-gp Q773A mutant [5] = target: T4, P-gp Q773A mutant (Homo sapiens, UniProt P08183, Q773A); test: cell-based
wild-type P-gp = wild-type P-gp (Homo sapiens, UniProt P08183); test: cell-based
P-gp Q132R mutant [6] = target: T3, P-gp Q132R mutant; test: cell-based
P-gp Q132A mutant [7] = target: T1, P-gp Q132A mutant; test: Rhodamine123 efflux; assay type: cell-based; details: Q132A vs wild type
P-gp Q132R mutant [8] = target: T3, P-gp Q132R mutant; test: Rhodamine123 efflux; assay type: cell-based; details: slope of first-order rate constant vs P-gp surface expression (MRK16)
P-gp Q773A mutant [9] = target: T4, P-gp Q773A mutant; test: Rhodamine123 efflux; assay type: cell-based; details: Q773A vs wild type
P-gp Q773R mutant [10] = target: T2, P-gp Q773R mutant; test: Rhodamine123 efflux; assay type: cell-based; details: slope of first-order rate constant vs P-gp surface expression (MRK16)
[11] = target: P-gp Q132R/Q773R double mutant (Homo sapiens, UniProt P08183, Q132R/Q773R); test: Rhodamine123 efflux; assay type: cell-based; details: protein expressed at the cell surface

T3 sequence (P08183 whole entry Q132R): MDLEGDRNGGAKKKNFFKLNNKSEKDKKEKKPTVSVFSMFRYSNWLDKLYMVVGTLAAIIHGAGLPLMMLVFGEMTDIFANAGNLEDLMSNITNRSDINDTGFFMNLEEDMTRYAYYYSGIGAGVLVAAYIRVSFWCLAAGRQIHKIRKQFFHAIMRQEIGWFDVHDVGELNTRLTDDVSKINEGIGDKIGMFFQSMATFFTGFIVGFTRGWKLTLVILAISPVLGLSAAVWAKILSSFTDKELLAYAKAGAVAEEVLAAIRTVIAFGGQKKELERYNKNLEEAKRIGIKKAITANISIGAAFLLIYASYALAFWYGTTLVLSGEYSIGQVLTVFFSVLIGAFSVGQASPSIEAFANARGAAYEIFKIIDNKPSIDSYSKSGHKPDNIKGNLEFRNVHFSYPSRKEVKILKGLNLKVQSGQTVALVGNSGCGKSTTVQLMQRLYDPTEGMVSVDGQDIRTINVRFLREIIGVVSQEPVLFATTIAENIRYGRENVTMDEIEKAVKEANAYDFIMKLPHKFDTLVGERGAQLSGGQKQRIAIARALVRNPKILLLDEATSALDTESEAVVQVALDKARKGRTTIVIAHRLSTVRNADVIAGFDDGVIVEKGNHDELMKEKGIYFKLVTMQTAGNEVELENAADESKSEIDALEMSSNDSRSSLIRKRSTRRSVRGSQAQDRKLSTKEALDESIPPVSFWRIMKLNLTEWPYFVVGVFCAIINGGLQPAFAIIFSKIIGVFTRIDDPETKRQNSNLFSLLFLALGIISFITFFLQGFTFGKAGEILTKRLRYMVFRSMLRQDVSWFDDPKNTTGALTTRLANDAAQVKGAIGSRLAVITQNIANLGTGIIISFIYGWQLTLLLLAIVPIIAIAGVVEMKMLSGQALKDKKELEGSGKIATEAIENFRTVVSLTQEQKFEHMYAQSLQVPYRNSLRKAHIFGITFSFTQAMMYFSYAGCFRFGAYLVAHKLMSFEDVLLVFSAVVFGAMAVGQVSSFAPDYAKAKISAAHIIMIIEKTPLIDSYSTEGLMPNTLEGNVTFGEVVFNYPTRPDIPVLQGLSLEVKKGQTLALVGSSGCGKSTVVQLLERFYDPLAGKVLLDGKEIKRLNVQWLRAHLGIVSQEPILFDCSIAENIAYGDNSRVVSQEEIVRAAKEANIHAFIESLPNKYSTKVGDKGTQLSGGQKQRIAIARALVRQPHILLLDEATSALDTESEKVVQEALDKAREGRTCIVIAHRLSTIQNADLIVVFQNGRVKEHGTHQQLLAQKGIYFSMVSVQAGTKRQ
T2 sequence (P08183 whole entry Q773R): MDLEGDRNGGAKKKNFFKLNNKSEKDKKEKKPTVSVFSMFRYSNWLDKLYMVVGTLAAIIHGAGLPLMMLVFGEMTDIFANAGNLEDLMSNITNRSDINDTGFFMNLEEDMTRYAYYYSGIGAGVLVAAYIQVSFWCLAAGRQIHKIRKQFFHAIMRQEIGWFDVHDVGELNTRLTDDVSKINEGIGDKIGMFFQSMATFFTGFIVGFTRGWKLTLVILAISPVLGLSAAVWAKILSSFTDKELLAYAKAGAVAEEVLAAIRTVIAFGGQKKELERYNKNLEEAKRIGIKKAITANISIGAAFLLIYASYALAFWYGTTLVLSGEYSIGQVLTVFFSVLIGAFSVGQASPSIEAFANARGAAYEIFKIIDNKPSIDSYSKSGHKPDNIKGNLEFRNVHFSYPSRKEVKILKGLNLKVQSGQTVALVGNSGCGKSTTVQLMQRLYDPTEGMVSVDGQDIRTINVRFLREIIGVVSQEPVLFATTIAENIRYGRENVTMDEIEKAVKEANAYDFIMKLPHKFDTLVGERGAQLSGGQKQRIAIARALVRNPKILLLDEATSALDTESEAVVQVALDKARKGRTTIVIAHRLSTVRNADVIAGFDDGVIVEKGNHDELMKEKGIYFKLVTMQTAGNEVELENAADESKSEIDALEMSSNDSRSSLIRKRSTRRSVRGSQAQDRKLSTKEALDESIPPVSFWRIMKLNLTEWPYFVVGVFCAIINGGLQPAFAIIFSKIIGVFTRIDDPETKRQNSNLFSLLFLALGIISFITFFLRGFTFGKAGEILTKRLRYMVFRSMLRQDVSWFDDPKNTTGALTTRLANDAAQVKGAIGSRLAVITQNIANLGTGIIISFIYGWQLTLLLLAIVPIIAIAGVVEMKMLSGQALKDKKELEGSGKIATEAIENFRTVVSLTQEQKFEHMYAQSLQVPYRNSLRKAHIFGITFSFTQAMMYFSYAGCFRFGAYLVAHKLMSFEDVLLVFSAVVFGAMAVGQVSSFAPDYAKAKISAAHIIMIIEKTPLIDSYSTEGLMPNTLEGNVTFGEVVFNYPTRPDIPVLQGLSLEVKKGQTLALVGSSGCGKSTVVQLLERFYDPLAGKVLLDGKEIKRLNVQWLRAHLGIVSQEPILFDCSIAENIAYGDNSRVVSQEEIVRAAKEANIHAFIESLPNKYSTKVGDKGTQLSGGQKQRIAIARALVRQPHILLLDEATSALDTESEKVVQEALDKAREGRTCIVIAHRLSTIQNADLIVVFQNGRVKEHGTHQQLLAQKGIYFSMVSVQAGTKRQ
T1 sequence (P08183 whole entry Q132A): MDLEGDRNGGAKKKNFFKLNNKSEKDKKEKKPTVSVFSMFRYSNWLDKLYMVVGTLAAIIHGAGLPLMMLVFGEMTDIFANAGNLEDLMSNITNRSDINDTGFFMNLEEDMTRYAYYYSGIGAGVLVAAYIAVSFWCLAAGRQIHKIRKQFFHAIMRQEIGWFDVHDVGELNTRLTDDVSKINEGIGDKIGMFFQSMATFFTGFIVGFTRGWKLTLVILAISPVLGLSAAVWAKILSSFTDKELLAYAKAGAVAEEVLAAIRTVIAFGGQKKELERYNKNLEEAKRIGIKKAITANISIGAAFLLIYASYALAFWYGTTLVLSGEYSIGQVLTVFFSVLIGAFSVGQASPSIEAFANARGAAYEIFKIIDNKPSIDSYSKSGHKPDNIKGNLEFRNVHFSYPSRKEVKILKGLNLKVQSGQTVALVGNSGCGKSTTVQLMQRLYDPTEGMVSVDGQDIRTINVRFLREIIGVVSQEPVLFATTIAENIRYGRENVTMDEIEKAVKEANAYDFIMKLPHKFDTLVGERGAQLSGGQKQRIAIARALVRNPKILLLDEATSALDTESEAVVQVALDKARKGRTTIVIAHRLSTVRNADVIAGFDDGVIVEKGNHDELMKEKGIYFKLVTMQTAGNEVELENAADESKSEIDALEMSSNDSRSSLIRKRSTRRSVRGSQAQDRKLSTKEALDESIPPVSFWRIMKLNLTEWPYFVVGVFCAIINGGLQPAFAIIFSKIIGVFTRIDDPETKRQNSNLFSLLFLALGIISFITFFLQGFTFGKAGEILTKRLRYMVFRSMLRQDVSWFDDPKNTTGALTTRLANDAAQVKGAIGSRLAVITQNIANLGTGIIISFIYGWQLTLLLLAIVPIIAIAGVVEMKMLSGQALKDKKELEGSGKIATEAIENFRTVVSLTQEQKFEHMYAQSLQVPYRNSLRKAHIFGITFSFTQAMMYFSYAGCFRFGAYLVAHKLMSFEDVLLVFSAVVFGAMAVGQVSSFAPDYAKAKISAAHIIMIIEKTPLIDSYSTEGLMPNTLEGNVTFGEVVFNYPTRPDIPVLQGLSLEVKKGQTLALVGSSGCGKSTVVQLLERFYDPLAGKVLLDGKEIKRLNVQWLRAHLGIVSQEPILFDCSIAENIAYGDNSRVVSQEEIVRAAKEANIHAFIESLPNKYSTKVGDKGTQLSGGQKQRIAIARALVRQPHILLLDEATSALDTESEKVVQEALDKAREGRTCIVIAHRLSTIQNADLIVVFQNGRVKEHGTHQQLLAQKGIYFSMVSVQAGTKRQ
T4 sequence (P08183 whole entry Q773A): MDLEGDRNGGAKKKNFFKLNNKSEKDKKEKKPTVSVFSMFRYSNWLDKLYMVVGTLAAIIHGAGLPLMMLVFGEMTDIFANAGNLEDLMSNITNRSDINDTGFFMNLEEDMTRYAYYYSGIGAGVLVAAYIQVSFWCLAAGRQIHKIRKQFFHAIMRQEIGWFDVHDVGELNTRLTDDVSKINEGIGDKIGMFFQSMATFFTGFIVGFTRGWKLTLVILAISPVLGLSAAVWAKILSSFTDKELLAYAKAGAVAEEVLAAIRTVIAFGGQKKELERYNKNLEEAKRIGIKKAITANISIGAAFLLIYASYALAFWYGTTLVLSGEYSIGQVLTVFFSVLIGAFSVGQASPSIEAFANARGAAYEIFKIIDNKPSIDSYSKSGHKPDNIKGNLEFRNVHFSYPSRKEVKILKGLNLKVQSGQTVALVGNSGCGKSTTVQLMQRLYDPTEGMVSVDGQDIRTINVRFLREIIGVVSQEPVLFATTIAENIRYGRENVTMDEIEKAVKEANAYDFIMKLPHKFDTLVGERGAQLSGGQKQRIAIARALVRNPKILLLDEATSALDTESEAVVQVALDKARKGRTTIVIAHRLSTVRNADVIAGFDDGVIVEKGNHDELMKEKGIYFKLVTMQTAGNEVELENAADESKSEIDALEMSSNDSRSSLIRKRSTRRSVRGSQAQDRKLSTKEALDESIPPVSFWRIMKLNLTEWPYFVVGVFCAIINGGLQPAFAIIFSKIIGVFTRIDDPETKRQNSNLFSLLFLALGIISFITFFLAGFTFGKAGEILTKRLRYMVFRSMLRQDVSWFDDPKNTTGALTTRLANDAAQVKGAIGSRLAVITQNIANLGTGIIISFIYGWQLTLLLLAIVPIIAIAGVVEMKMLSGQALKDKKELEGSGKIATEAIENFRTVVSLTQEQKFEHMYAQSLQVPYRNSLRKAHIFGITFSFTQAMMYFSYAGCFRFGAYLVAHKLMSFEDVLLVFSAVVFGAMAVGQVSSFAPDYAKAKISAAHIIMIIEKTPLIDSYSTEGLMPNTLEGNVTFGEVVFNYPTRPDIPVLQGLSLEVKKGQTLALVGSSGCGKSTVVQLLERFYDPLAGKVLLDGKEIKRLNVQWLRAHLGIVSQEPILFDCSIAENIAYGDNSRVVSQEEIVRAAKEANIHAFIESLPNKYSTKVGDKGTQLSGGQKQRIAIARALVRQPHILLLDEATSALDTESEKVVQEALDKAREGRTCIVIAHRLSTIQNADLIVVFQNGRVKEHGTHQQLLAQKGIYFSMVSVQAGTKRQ

| Change of IC50 values on mutation of glutamine residues to alanine (P-gp Q132A mutant [1]) | IC50 (P-gp Q773R mutant [2]) | IC50 (P-gp Q132A mutant [3]) | IC50 (P-gp Q132A/Q773A mutant) | Fold difference in IC50 values between the two Arg mutants (P-gp Q132R mutant [4]; Q132R vs Q773R) | Fold higher IC50 in Q132R than in wild-type P-gp (P-gp Q132R mutant [4]; Q132R vs wild-type) | IC50 (P-gp Q773A mutant [5]) | IC50 (wild-type P-gp) | IC50 (P-gp Q132R mutant [6]) | Rhodamine123 transport rate relative to wild-type (P-gp Q132R mutant [8]) | Rhodamine123 transport rate relative to wild-type (P-gp Q773R mutant [10]) | Rhodamine123 transport activity [11] | SMILES | Effect of mutation on rhodamine123 transport (P-gp Q132A mutant [7]) | Effect of mutation on rhodamine123 transport (P-gp Q773A mutant [9]) |
| --- | --- | --- | --- | --- | --- | --- | --- | --- | --- | --- | --- | --- | --- | --- |
| did not change | 20 ± 10 nM | 100 ± 30 nM | 120 ± 10 nM | 36 fold | ~7 fold | 110 ± 50 nM | 110 ± 60 nM | 710 ± 460 nM |  |  |  | O=C(CCc1ccccc1)c1ccccc1OCC(O)CN1CCN(c2ccc(F)cc2)CC1 (stereo not drawn) [GPV31, 1-(2-(3-(4-(4-fluorophenyl)piperazin-1-yl)-2-hydroxypropoxy)phenyl)-3-phenylpropan-1-one] |  |  |
| did not change | 2090 ± 900 nM | 2570 ± 690 nM | 2870 ± 630 nM |  |  | 2400 ± 1470 nM | 2600 ± 690 nM | 2640 ± 590 nM |  |  |  | CCCN(CC(O)COc1ccccc1C(=O)CCc1ccccc1)C(=O)c1ccccc1 (stereo not drawn) [GPV366, N-(2-hydroxy-3-(2-(3-phenylpropanoyl)phenoxy)-propyl)-N-propylbenzamide] |  |  |
|  |  |  |  |  |  |  |  |  | 52 ± 13 % of wild-type | 24 ± 6 % of wild-type | complete loss of transport activity | COC(=O)c1ccccc1-c1c2ccc(=N)cc-2oc2cc(N)ccc12 [rhodamine123] | did not affect; also recorded: comparable with wild-type | did not affect; also recorded: comparable with wild-type |
